Assay results published in US10617680B2 (CELGENE QUANTICEL RESEARCH, INC., priority 2017, dated 2020).

Target: CBP (Homo sapiens (Human), UniProt Q92793)
Assay: In vitro CBP inhibition (AlphaScreen, biotinylated H4-tetraacetyl peptide)
Format: binding
Settings: AlphaScreen, Table 29; read-out: CBP IC50
Method: The CBP-inhibitory activity of the compounds described herein was determined by calculating the IC50. More specifically, CBP inhibitor activity was assayed as follows: CBP was cloned and expressed in E. coli as His-tag protein and purified by Nickel affinity and gel-filtration chromatography. […] CBP binding and inhibition is assessed by monitoring the interaction of biotinylated H4-tetraacetyl peptide (AnaSpec, H4K5/8/12/16(Ac), biotin-labeled) with the target using the AlphaScreen technology (Perkin Elmer). In a 384-well ProxiPlate CBP (50 nM final) was combined with peptide (20 nM final) in 50 mM HEPES (pH 7.3), 10 mM NaCl, 0.25 mM TCEP, 0.1% (w/v) BSA, and 0.005% (w/v) Brij-35 either in the presence of DMSO (final 0.4% DMSO) or compound dilution series in DMSO. After 20 min incubation at room temp, Alpha-streptavidin donor beads and Nickel Chelate acceptor beads were added to a final concentration of 5 μg/mL.
The ability of the compounds disclosed herein to inhibit CBP activity was quantified and the respective IC50 value determined.

CBP, sequence (Q92793 1081-1197): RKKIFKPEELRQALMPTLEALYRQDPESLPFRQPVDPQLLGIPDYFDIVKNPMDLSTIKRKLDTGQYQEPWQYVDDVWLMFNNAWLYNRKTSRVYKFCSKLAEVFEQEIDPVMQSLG

| Compound | IC50 |
| --- | --- |
| Cc1cc(-c2cnn(C(C)c3ccccc3)c2)cn(C)c1=O (stereo not drawn) [Example 17, 1,3-dimethyl-5-(1-(1-phenylethyl)-1H-pyrazol-4-yl)pyridin-2(1H)-one] | < 500 nM |
| Cn1cc(-c2cnn(-c3cccc(F)c3C#N)c2)c(-c2ccc(C3CCCC3)nc2)cc1=O [Example 378, 2-(4-(6-cyclopentyl-1′-methyl-6′-oxo-1′,6′-dihydro-[3,4′-bipyridin]-3′-yl)-1H-pyrazol-1-yl)-6-fluorobenzonitrile] | < 500 nM |
| CC(c1ccccc1)n1cc(-c2cn(C)c(=O)cc2-c2ccc(OCCCN(C)C)nc2)cn1 (stereo not drawn) [Example 313, 6-(3-(dimethylamino)propoxy)-1′-methyl-5′-(1-(1-phenylethyl)-1H-pyrazol-4-yl)-[3,4′-bipyridin]-2′(1′H)-one] | < 500 nM |
| Cn1cc(-c2cnn(Cc3ccccc3)c2)c(OCC(F)(F)F)cc1=O [Example 91, 5-(1-benzyl-1H-pyrazol-4-yl)-1-methyl-4-(2,2,2-trifluoro-ethoxy)pyridin-2(1H)-one] | < 500 nM |
| Cn1cc(-c2cnn(C3CCCCC3)c2)c(-c2ccccc2)cc1=O [Example 125, 5-(1-cyclohexyl-1H-pyrazol-4-yl)-1-methyl-4-phenylpyridin-2(1H)-one] | < 500 nM |
| CN1CCN(c2ncc(-c3cc(=O)n(C)cc3-c3cnn(-c4cccc(Cl)c4C#N)c3)cn2)CC1 [Example 337, 2-chloro-6-(4-(1-methyl-4-(2-(4-methylpiperazin-1-yl)pyrimidin-5-yl)-6-oxo-1,6-dihydropyridin-3-yl)-1H-pyrazol-1-yl)benzonitrile] | < 500 nM |
| Cn1cc(-c2cnn(-c3ccccc3C#N)c2)c(-c2ccc(C(N)=O)cc2)cc1=O [Example 218, 4-{5-[1-(2-Cyano-phenyl)-1H-pyrazol-4-yl]-1-methyl-2-oxo-1,2-dihydro-pyridin-4-yl}-benzamide] | < 500 nM |
| CC(c1ccccc1)n1cc(-c2cc(C3CC3)c(=O)n(C)c2)cn1 (stereo not drawn) [Example 197, 3-Cyclopropyl-1-methyl-5-[1-(1-phenyl-ethyl)1H-pyrazol-4-yl]-1H-pyridin-2-one] | > 5000 nM |
| COc1ncc(-c2cc(=O)n(C)cc2-c2cnn(-c3ccccc3C#N)c2)cn1 [Example 244, 2-{4-[4-(2-Methoxy-pyrimidin-5-yl)-1-methyl-6-oxo-1,6-dihydro-pyridin-3-yl]-pyrazol-1-yl}-benzonitrile] | < 500 nM |
| CC(C)Nc1ncc(-c2cc(=O)n(C)cc2-c2cnn(-c3cccc(Cl)c3C#N)c2)cn1 [Example 331, 2-chloro-6-(4-(4-(2-(isopropylamino)pyrimidin-5-yl)-1-methyl-6-oxo-1,6-dihydropyridin-3-yl)-1H-pyrazol-1-yl)benzonitrile] | < 500 nM |
| CC(c1ccccc1)n1cc(-c2cn(C)c(=O)cc2F)cn1 (stereo not drawn) [Example 21, 4-fluoro-1-methyl-5-(1-(1-phenylethyl)-1H-pyrazol-4-yl) pyridin-2(1H)-one] | 500 to 5000 nM |
| Cn1cc(-c2cnn(Cc3ccccc3)c2)c(OCC#N)cc1=O [Example 167, [5-(1-Benzyl-1H-pyrazol-4-yl)-1-methyl-2-oxo-1,2-dihydro-pyridin-4-yloxy]-acetonitrile] | < 500 nM |
| Cn1cc(-c2cnn(-c3ccccc3C#N)c2)c(-c2cccnc2)cc1=O [Example 237, 2-[4-(1′-Methyl-6′-oxo-1′,6′-dihydro-[3,4′]bipyridinyl-3′-yl)-pyrazol-1-yl]-benzonitrile] | < 500 nM |
| CCOc1cc(=O)n(C)cc1-c1cnn2c1CN(S(C)(=O)=O)CC2 [Example 392, 4-Ethoxy-5-(5-methanesulfonyl-4,5,6,7-tetrahydro-pyrazolo[1,5-a]pyrazin-3-yl)-1-methyl-1H-pyridin-2-one] | < 500 nM |
| Cn1cc(-c2cnn(Cc3ccccc3)c2)c(N2CC[C@H](C(=O)O)C2)cc1=O [Example 75, (S)-1-(5-(1-benzyl-1H-pyrazol-4-yl)-1-methyl-2-oxo-1,2-dihydro-pyridin-4-yl)pyrrolidine-3-carboxylic acid] | < 500 nM |
| Cn1cc(-c2cnn(-c3cccc(Cl)c3C#N)c2)c(-c2ccc(OC3CCCC3)nc2)cc1=O [Example 352, 2-chloro-6-[4-[4-[6-(cyclopentoxy)-3-pyridyl]-1-methyl-6-oxo-3-pyridyl]pyrazol-1-yl]benzonitrile] | < 500 nM |
| COc1ncc(-c2cc(=O)n(C)cc2-c2cnn(-c3ccccc3F)c2)cn1 [Example 320, 5-(1-(2-fluorophenyl)-1H-pyrazol-4-yl)-4-(2-methoxypyrimidin-5-yl)-1-methylpyridin-2(1H)-one] | < 500 nM |
| CC(c1ccccc1)n1cc(-c2cc(F)c(=O)n(C)c2)cn1 (stereo not drawn) [Example 26, 3-fluoro-1-methyl-5-(1-(1-phenylethyl)-1H-pyrazol-4-yl) pyridin-2(1H)-one] | 500 to 5000 nM |

| Compound | IC50 |
| --- | --- |
| Cn1cc(-c2cnn(Cc3ccccc3)c2)c(-c2cc[nH]c(=O)c2)cc1=O [Example 193, 5-(1-Benzyl-1 H-pyrazol-4-yl)-1-methyl-1H,1′H-[4,4′]bipyridinyl-2,2′-dione] | < 500 nM |
| Cn1cc(-c2cnn(-c3ccccc3C#N)c2)c(-c2ccn(C3CC3)c(=O)c2)cc1=O [Example 222, 2-[4-(1′-Cyclopropyl-1-methyl-6,2′-dioxo-1,6,1′,2′-tetrahydro-[4,4′]bipyridinyl-3-yl)-pyrazol-1-yl]-benzonitrile] | < 500 nM |
| CC1CN(c2cc(=O)n(C)cc2-c2cnn(C(C)c3ccccc3)c2)C1 (stereo not drawn) [Example 54, 1-methyl-4-(3-methylazetidin-1-yl)-5-(1-(1-phenylethyl)-1H-pyrazol-4-yl)pyridin-2(1H)-one] | < 500 nM |
| CC(C)Oc1cc(=O)n(C)cc1-c1cnn(-c2ccccc2C#N)c1 [Example 202, 2-[4-(4-Isopropoxy-1-methyl-6-oxo-1,6-dihydro-pyridin-3-yl)-pyrazol-1-yl]-benzonitrile] | < 500 nM |
| COc1cccc(-c2cc(=O)n(C)cc2-c2cnn(Cc3ccccc3)c2)c1 [Example 113, 5-(1-benzyl-1H-pyrazol-4-yl)-4-(3-methoxyphenyl)-1-methyl-pyridin-2(1H)-one] | < 500 nM |
| CCOc1cc(=O)n(C)cc1-c1cnn(-c2cc(OC)ccc2C#N)c1 [Example 182, 2-[4-(4-Ethoxy-1-methyl-6-oxo-1,6-dihydro-pyridin-3-yl)-pyrazol-1-yl]-4-methoxy-benzonitrile] | < 500 nM |
| CC(=O)N[C@H]1CCN(c2cc(=O)n(C)cc2-c2cnn(Cc3ccccc3)c2)C1 [Example 73, (S)-N-(1-(5-(1-benzyl-1H-pyrazol-4-yl)-1-methyl-2-oxo-1,2-dihydropyridin-4-yl)pyrrolidin-3-yl) acetamide] | 500 to 5000 nM |
| Cn1nc(-c2cn(C)c(=O)cc2-c2ccccc2)cc1-c1ccccc1 [Example 395, 1-methyl-5-(1-methyl-5-phenyl-1H-pyrazol-3-yl)-4-phenylpyridin-2(1H)-one] | < 500 nM |
| CC(c1ccccc1)n1cc(-c2cn(C)c(=O)cc2Oc2ccccc2)cn1 (stereo not drawn) [Example 57, 1-methyl-4-phenoxy-5-(1-(1-phenylethyl)-1H-pyrazol-4-yl) pyridin-2(1H)-one] | 500 to 5000 nM |
| Cn1cc(-c2cnn(Cc3ccc(F)cc3)c2)ccc1=O [Example 6, 5-(1-(4-fluorobenzyl)-1H-pyrazol-4-yl)-1-methylpyridin-2(1H)-one] | 500 to 5000 nM |
| CNc1cc(=O)n(C)cc1-c1cnn(C(C)c2ccccc2)c1 (stereo not drawn) [Example 42, 1-methyl-4-(methyl-amino)-5-(1-(1-phenylethyl)-1H-pyrazol-1-yl) pyridin-2(1H)-one] | < 500 nM |
| COc1ccc(C(=O)O)c(-n2cc(-c3cn(C)c(=O)cc3-c3ccc(F)cc3)cn2)c1 [Example 269, 2-{4-[4-(4-Fluoro-phenyl)-1-methyl-6-oxo-1,6-dihydro-pyridin-3-yl]-pyrazol-1-yl}-4-methoxy-benzoic acid] | < 500 nM |
| CCOc1cc(=O)n(C)cc1-c1cnn(Cc2cccc(Br)c2)c1 [Example 105, 5-(1-(3-bromo-benzyl)-1H-pyrazol-4-yl)-4-ethoxy-1-methyl-pyridin-2(1H)-one] | < 500 nM |
| COCCNc1ncc(-c2cc(=O)n(C)cc2-c2cnn(-c3cccc(Cl)c3C#N)c2)cn1 [Example 326, 2-chloro-6-(4-(4-(2-((2-methoxyethyl)amino)pyrimidin-5-yl)-1-methyl-6-oxo-1,6-dihydropyridin-3-yl)-1H-pyrazol-1-yl)benzonitrile] | < 500 nM |
| COc1cc(-c2cnn(C(C)c3ccccc3)c2)cn(C)c1=O (stereo not drawn) [Example 32, 3-methoxy-1-methyl-5-(1-(1-phenylethyl)-1H-pyrazol-4-yl) pyridin-2(1H)-one] | 500 to 5000 nM |
| Cn1cc(-c2cnn(-c3ccccc3C#N)c2)c(-c2ccc(=O)[nH]c2)cc1=O [Example 206, 2-[4-(1′-Methyl-6,6′-dioxo-1,6,1′,6′-tetrahydro-[3,4′]bipyridinyl-3′-yl)-pyrazol-1-y]benzonitrile] | < 500 nM |
| Cc1ccc(-c2cc(=O)n(C)cc2-c2cnn(-c3ccccc3C(=O)O)c2)cc1 [Example 224, 2-[4-(1-Methyl-6-oxo-4-p-tolyl-1,6-dihydro-pyridin-3-yl)-pyrazol-1-yl]-benzoic acid] | < 500 nM |

Same assay, conditions: Table 30; read-out: CRREBBP IC50

| Compound | IC50 |
| --- | --- |
| Cc1sc2c(c1C)C(c1ccc(Cl)cc1)=N[C@@H](CC(=O)OC(C)(C)C)c1nnc(C)n1-2 [JQ-1, tert-butyl (S)-2-(4-(4-chloro-phenyl)-2,3,9-trimethyl-6H-thieno[3,2-f][1,2,4]triazolo[4,3-a][1,4]diazepin-6-yl)acetate, reference compound] | > 5000 nM |
